Format in all cases: functional
Test [1] concerns Mus musculus. Put plainly: Analgesic activity in mouse assessed as pain threshold variation at 25 umol/kg, po after 120 mins (RVb = 0.69 +/- 1.98 %).
For test [2], the system named is Mus musculus. The test can be described thus: Analgesic activity in mouse assessed as pain threshold variation at 25 umol/kg, po after 30 mins (RVb = -1 +/- 2.8 %).
Test [3] deals with Mus musculus. Put plainly: Analgesic activity in mouse assessed as pain threshold variation at 25 umol/kg, po after 60 mins (RVb = -6.5 +/- 1.79 %).
In test [4] the test system is Mus musculus. The test can be described thus: Analgesic activity in mouse assessed as pain threshold variation at 25 umol/kg, po after 90 mins (RVb = 0.2 +/- 3.75 %).
In test [5] the test system is Mus musculus. Put plainly: Analgesic activity in mouse assessed as pain threshold variation at 25 umol/kg, po after 150 mins (RVb = 3.98 +/- 4.03 %).
The test system of test [6] is Mus musculus. Put plainly: Analgesic activity in mouse assessed as pain threshold variation at 25 umol/kg, po after 180 mins (RVb = -5.10 %).
For test [7], the system named is Mus musculus. The test can be described thus: Analgesic activity in mouse assessed as pain threshold variation at 30 umol/kg, po after 30 mins (RVb = 0.13 +/- 0.14 %).
Test [8] relates to Mus musculus. Put plainly: Analgesic activity in mouse assessed as pain threshold variation at 3 umol/kg, po after 30 mins (RVb = 0.13 +/- 0.14 %).
The subject of test [9] is Mus musculus. The test can be described thus: Analgesic activity in mouse assessed as pain threshold variation at 0.3 umol/kg, po after 30 mins (RVb = 0.13 +/- 0.14 %).
In test [10] the test system is Mus musculus. The test can be described thus: Analgesic activity in mouse assessed as pain threshold variation at 30 umol/kg, po after 60 mins (RVb = 0.15 +/- 0.16 %).
Test [11] relates to Mus musculus. Put plainly: Analgesic activity in mouse assessed as pain threshold variation at 3 umol/kg, po after 60 mins (RVb = 0.15 +/- 0.16 %).
Test [12] deals with Mus musculus. The test can be described thus: Analgesic activity in mouse assessed as pain threshold variation at 0.3 umol/kg, po after 60 mins (RVb = 0.15 +/- 0.16 %).
For test [13], the system named is Mus musculus. The test can be described thus: Analgesic activity in mouse assessed as pain threshold variation at 30 umol/kg, po after 90 mins (RVb = 0.17 +/- 0.14 %).
In test [14] the test system is Mus musculus. Put plainly: Analgesic activity in mouse assessed as pain threshold variation at 3 umol/kg, po after 90 mins (RVb = 0.17 +/- 0.14 %).
The test system of test [15] is Mus musculus. Put plainly: Analgesic activity in mouse assessed as pain threshold variation at 0.3 umol/kg, po after 90 mins (RVb = 0.17 +/- 0.14 %).
The subject of test [16] is Mus musculus. Put plainly: Analgesic activity in mouse assessed as pain threshold variation at 30 umol/kg, po after 120 mins (RVb = 0.18 +/- 0.15 %).
Test [17] relates to Mus musculus. The test can be described thus: Analgesic activity in mouse assessed as pain threshold variation at 3 umol/kg, po after 120 mins (RVb = 0.18 +/- 0.15 %).
The test system of test [18] is Mus musculus. Put plainly: Analgesic activity in mouse assessed as pain threshold variation at 0.3 umol/kg, po after 120 mins (RVb = 0.18 +/- 0.15 %).
Test [19] has as its system Mus musculus. Put plainly: Analgesic activity in mouse assessed as pain threshold variation at 30 umol/kg, po after 150 mins (RVb = 0.16 +/- 0.13 %).
For test [20], the system named is Mus musculus. Put plainly: Analgesic activity in mouse assessed as pain threshold variation at 3 umol/kg, po after 150 mins (RVb = 0.16 +/- 0.13 %).
In test [21] the test system is Mus musculus. Put plainly: Analgesic activity in mouse assessed as pain threshold variation at 0.3 umol/kg, po after 150 mins (RVb = 0.16 +/- 0.13 %).
Test [22] deals with Mus musculus. The test can be described thus: Analgesic activity in mouse assessed as pain threshold variation at 30 umol/kg, po after 180 mins (RVb = 0.15 +/- 0.12 %).
Test [23] concerns Mus musculus. The test can be described thus: Analgesic activity in mouse assessed as pain threshold variation at 3 umol/kg, po after 180 mins (RVb = 0.15 +/- 0.12 %).
Test [24] deals with Mus musculus. The test can be described thus: Analgesic activity in mouse assessed as pain threshold variation at 0.3 umol/kg, po after 180 mins (RVb = 0.15 +/- 0.12 %).

`O=C(CN(c1nc(Cl)nc2c1ncn2C1CCCCO1)C1CC1)NCC(=O)OCc1ccccc1` (configuration not stated): the Activity is reported as 17.23% in test [1]; 55.72% in test [2]; 40.44% in [3]; 25.94% in test [4]; 7.26% in test [5]; 0.06% in test [6]. Also, the Activity in test [7] is recorded as 60.84%; in test [8] it was 45.27%; in test [9] it was 18%; in test [10] it was 45.52%; in test [11], 29.07%; in [12], 16.24%. In addition, the Activity turned out to be 31.04% in [13]; 20.25% in test [14]; 11.2% in [15]; 22.31% in test [16]; 14.53% in test [17]; 10.02% in test [18]. Also, the Activity in test [19] turned out to be 12.33%; in test [20], 10.04%; in [21] it was 9.45%; in [22] it was 10.16%; in test [23], 9.2%; in test [24] it was 9%.
Take `N=C(N)NCCC[C@H](NC(=O)CN(c1nc(Cl)nc2c1ncn2C1CCCCO1)C1CC1)C(=O)OCc1ccccc1` (some centres not stated): the Activity is listed as 38.16% in [1]; 34.27% in [2]; 52.35% in test [3]; 61.58% in [4]; 19.6% in test [5]; 7.97% in test [6]. For the same compound, the Activity worked out at 39.41% in [7]; 20.55% in test [8]; 12.15% in test [9]; 57.51% in test [10]; 41.07% in test [11]; 25.11% in test [12]. Besides, the Activity in [13] was found to be 66.71%; in test [14], 50.14%; in [15], 32.88%; in [16] it was 43.3%; in test [17], 29.09%; in test [18] it was 12.14%. In addition, the Activity in test [19] is given as 24.69%; in test [20], 15%; in test [21], 10.03%; in test [22], 14.01%; in test [23] it was 10.34%; in test [24], 7.56%.
Consider `C[C@H](NC(=O)CN(c1nc(Cl)nc2c1ncn2C1CCCCO1)C1CC1)C(=O)OCc1ccccc1` (some centres not stated), for which the Activity in [1] is given as 25.3%; in test [2], 55.91%; in test [3], 53%; in test [4], 32.06%; in test [5] it was 6.01%; in test [6] it was 5.96%. Also, the Activity in [7] was found to be 60.11%; in test [8], 43.25%; in [9], 25.6%; in [10], 58.18%; in test [11] it was 39.81%; in test [12] it was 21.56%. Further, the Activity in test [13] was found to be 37.16%; in test [14] it was 25.34%; in [15], 11.43%; in test [16] it was 30.44%; in test [17], 18.03%; in test [18], 11.03%. The Activity is 11.2% in [19]; 12% in [20]; 10% in test [21]; 11% in test [22]; 10% in test [23]; 8.09% in test [24].

(Values after ChEMBL document CHEMBL1255208, “A class of novel conjugates of substituted purine and Gly-AA-OBzl: synthesis and evaluation of orally analgesic activity” (2010).)
